Read-outs that look alike come from different tables or passages of the source.
Assays:
[1] = system: gray mold fungi tolerant to benzimidazole type fungicidal compounds; test: Test Example 17: cucumber gray mold, benzimidazole-tolerant (resistant) fungus; details: 20 ppm; cucumber seedling
Protocol: (§1) Each of plastic pots was filled with sandy loam and sown with cucumber (Sagamihanjiro), followed by growing in a greenhouse for 14 days. A wettable powder of test agents prepared according to Formulation Example 59 was diluted to a predetermined concentration with water, and foliage application of the dilution was carried out so as to adhere the dilution sufficiently to the surfaces of leaves of the grown cucumber young seedling. After air-drying, each of gray mold fungi sensitive and tolerant, respectively, to benzimidazole type fungicidal compounds was inoculated on the surfaces of leaves of the young seedling, and the young seedling was grown in the dark at 10° C. and a high humidity for 4 days, after which the infection rate (%) was investigated.

[2] = system: tomato late blight fungus; format: in vivo, Phytophthora infestans; details: 10 ppm; tomato seedling
[3] = system: grape downy mildew fungus (Plasmopara viticola); test: Test Example 2: grape downy mildew, spray then inoculation, infection rate; format: in vivo; details: 10 ppm; grape plant, 1 week at 24° C.
From the text: A grape plant (cultivar: Berry A) was planted in each pot and was sprayed with a sufficient volume of a dilution with a predetermined concentration of a wettable powder obtained according to Formulation Example 5, after the plant put out a fourth leaf.

[4] = system: gray mold fungi sensitive to benzimidazole type fungicidal compounds; test: Test Example 17: cucumber gray mold, benzimidazole-sensitive fungus; details: 20 ppm; cucumber seedling
Protocol: as §1

[5] = system: gray mold fungi tolerant to benzimidazole type fungicidal compounds; test: Test Example 12: cucumber gray mold, benzimidazole-tolerant (resistant) fungus; details: 20 ppm; cucumber seedling
Protocol: Each of plastic pots was filled with sandy loam and sown with cucumber (Sagamihanjiro), followed by growing in a greenhouse for 14 days. […] After air-drying, each of gray mold fungi sensitive and tolerant, respectively, to benzimidazole type fungicidal compounds was inoculated on the surfaces of leaves of the young seedling, and the young seedling was grown in the dark at 10° C. and a high humidity for 4 days, after which the infection rate (%) was investigated.

[6] = system: grape powdery mildew fungus (Uncinula necator); test: Test Example 14: grape powdery mildew, spray then inoculation; format: in vivo; details: 1 ppm; grape plant, 3 weeks at 24° C.
[7] = system: grape powdery mildew fungus (Uncinula necator); test: Test Example 16: grape powdery mildew, spray then inoculation; format: in vivo; details: 10 ppm; grape plant, 3 weeks at 24° C.
gray mold fungus [8] = test: Test Example 3: cucumber gray mold, foliage application before inoculation; details: 20 ppm; cucumber seedling, applied before inoculation, 4 days
Protocol: Each of plastic pots was filled with sandy loam and sown with cucumber (Sagamihanjiro), followed by growing in a greenhouse for 14 days. A wettable powder of test agents prepared according to Formulation Example 11 was diluted to a predetermined concentration with water, and foliage application of the dilution was carried out so as to adhere the dilution sufficiently to the surfaces of leaves of the grown cucumber young seedling. After air-drying, gray mold fungus was inoculated on the surfaces of leaves of the young seedling, and the young seedling was grown in the dark at 10° C. and a high humidity for 4 days, after which the infection rate (%) was investigated.

apple scab fungus [9] = test: Test Example 8: apple scab, foliage application then inoculation; format: in vivo, Venturia inaequalis; details: 0.5 ppm; apple seedling
[10] = system: grape downy mildew fungus; test: Test Example 6: grape downy mildew, foliage application then inoculation; details: 1 ppm; grape seedling
Protocol: (§2) Each of plastic pots was filled with sandy loam and sown with grape (Berry A), followed by growing in a greenhouse for 40 days. […] Then, the young seedling was inoculated with a suspension of zoosporangia of grape downy mildew fungus by spraying. After the inoculation, the young seedling was allowed to stand overnight at 23° C. and a high humidity and then grown in a greenhouse for 7 days, after which the infection rate (%) was investigated.

apple scab fungus [11] = test: Test Example 13: apple scab, foliage application then inoculation; format: in vivo, Venturia inaequalis; details: 0.5 ppm; apple seedling
[12] = system: tomato late blight fungus (Phytophthora infestans); format: in vivo; details: 10 ppm; tomato plant, 1 week at 24° C.
[13] = system: tomato late blight fungus; format: in vivo, Phytophthora infestans; details: 5 ppm; tomato seedling
[14] = system: gray mold fungi sensitive to benzimidazole type fungicidal compounds; test: Test Example 12: cucumber gray mold, benzimidazole-sensitive fungus; details: 20 ppm; cucumber seedling
Protocol: Each of plastic pots was filled with sandy loam and sown with cucumber (Sagamihanjiro), followed by growing in a greenhouse for 14 days. A wettable powder of test agents prepared according to Formulation Example 41 was diluted to a predetermined concentration with water, and foliage application of the dilution was carried out so as to adhere the dilution sufficiently to the surfaces of leaves of the grown cucumber young seedling. After air-drying, each of gray mold fungi sensitive and tolerant, respectively, to benzimidazole type fungicidal compounds was inoculated on the surfaces of leaves of the young seedling, and the young seedling was grown in the dark at 10° C. and a high humidity for 4 days, after which the infection rate (%) was investigated.

gray mold fungus [15] = test: Test Example 4: cucumber gray mold, foliage application after inoculation; details: 20 ppm; cucumber seedling, applied after inoculation
Protocol: Each of plastic pots was filled with sandy loam and sown with cucumber (Sagamihanjiro), followed by growing in a greenhouse for 14 days. Gray mold fungus was inoculated on the surfaces of leaves of the grown cucumber young seedling, and the young seedling was grown in the dark at 10° C. and a high humidity for 2 days and then at a temperature of 23° C. for 3 days. A wettable powder of test agents prepared according to Formulation Example 11 was diluted to a predetermined concentration with water, and foliage application of the dilution was carried out so as to adhere the dilution sufficiently to the surfaces of leaves of the cucumber young seedling. After the spraying, the young seedling was grown in the dark at 10° C. and a high humidity for 3 days, and then the infection rate (%) was investigated.

[16] = system: grape downy mildew fungus; test: Test Example 9: grape downy mildew, foliage application then inoculation; details: 10 ppm; grape seedling
Protocol: as §2

gray mold fungus [17] = test: Test Example 11: cucumber gray mold, foliage application before inoculation; details: 20 ppm; cucumber seedling
Protocol: Each of plastic pots was filled with sandy loam and sown with cucumber (Sagamihanjiro), followed by growing in a greenhouse for 14 days. A wettable powder of test agents prepared according to Formulation Example 35 was diluted to a predetermined concentration with water, and foliage application of the dilution was carried out so as to adhere the dilution sufficiently to the surfaces of leaves of the grown cucumber young seedling. After air-drying, gray mold fungus was inoculated on the surfaces of leaves of the young seedling, and the young seedling was grown in the dark at 10° C. and a high humidity for 4 days, after which the infection rate (%) was investigated.

[18] = system: grape downy mildew fungus; test: Test Example 7: grape downy mildew, foliage application then inoculation; details: 2 ppm; grape seedling
Protocol: as §2

[19] = system: tomato late blight fungus (Phytophthora infestans); format: in vivo; details: 10 ppm; tomato plant, 1 week at 24° C.; remark: listed apart in the source

CNC(=O)C(=NOC)c1ccccc1COc1cc(C)ccc1C [Compound (Ie), N-methyl-α-methoxyimino-2-[(2,5-dimethylphenoxy)methyl]phenylacetamide]
Infection rate (%) Resistant fungus [1]: 25% | Infection rate (%) [2]: 20% | Infection rate (%) [3]: 25% | Infection rate (%) Sensitive fungus [4]: 25% | Infection rate (%) Resistant fungus [5]: 25% | Infection rate (%) [6]: 25% | Infection rate (%) [7]: 25% | Infection rate (%) (gray mold fungus [8]): 25% | Infection rate (%) (apple scab fungus [9]): 20% | Infection rate (%) [10]: 25% | Infection rate (%) (apple scab fungus [11]): 20% | Infection rate (%) [12]: 25% | Infection rate (%) [13]: 25% | Infection rate (%) Sensitive fungus [14]: 25% | Infection rate (%) (gray mold fungus [15]): 25% | Infection rate (%) [16]: 25% | Infection rate (%) (gray mold fungus [17]): 25% | Infection rate (%) [18]: 20% | Infection rate (%) [19]: 25%

Reference: US6518304B1, “Fungicidal composition” (Sumitomo Chemical Company, Limited, priority 1993, dated 2003)
